In patent US10456407B2, “Combination therapy for treating cancer” (Epizyme, Inc., priority 2015, dated 2019):
Where “and” joins values, the source holds several entries; their conditions need not be identical. Equal entries are not always repeated.

Test system: DOHH2 cells
Test: RT2 Glucocorticoid signaling PCR array, DOHH2 cell line (Table 4b)
Format: cell-based
Conditions: DOHH2, 4 days

Compound: CCN(c1cc(-c2ccc(CN3CCOCC3)cc2)cc(C(=O)NCc2c(C)cc(C)[nH]c2=O)c1C)C1CCOCC1 [Compound 44]
- HNRPLL ΔCT (B2M) (normalized to B2M): 10.575
- HPRT1 ΔCT (B2M) (normalized to B2M): 2.985
- IL1RN ΔCT (B2M) (normalized to B2M): 13.695
- IL6R ΔCT (B2M) (normalized to B2M): 13.386
- IL6 ΔCT (B2M) (normalized to B2M): 15.874
- KLF9 ΔCT (B2M) (normalized to B2M): 9.863
- KLF13 ΔCT (B2M) (normalized to B2M): 3.844
- LOX ΔCT (B2M) (normalized to B2M): 14.421
- MERTK ΔCT (B2M) (normalized to B2M): 13.880
- NFKBIA ΔCT (B2M) (normalized to B2M): 4.049
- NR3C1 ΔCT (B2M) (normalized to B2M): 3.854
- PDCD7 ΔCT (B2M) (normalized to B2M): 4.841
- PDGFRB ΔCT (B2M) (normalized to B2M): 16.617
- PDP1 ΔCT (B2M) (normalized to B2M): 6.599
- PER1 ΔCT (B2M) (normalized to B2M): 6.141
- PER2 ΔCT (B2M) (normalized to B2M): 5.259
- PIK3R1 ΔCT (B2M) (normalized to B2M): 5.136
- PLEKHF1 ΔCT (B2M) (normalized to B2M): 10.370
- POU2F1 ΔCT (B2M) (normalized to B2M): 5.427
- POU2F2 ΔCT (B2M) (normalized to B2M): 3.591
- RASA3 ΔCT (B2M) (normalized to B2M): 9.060
- RGS2 ΔCT (B2M) (normalized to B2M): 6.285
- RHOB ΔCT (B2M) (normalized to B2M): 12.169
- RPLP0 ΔCT (B2M) (normalized to B2M): −3.641
- SESN1 ΔCT (B2M) (normalized to B2M): 5.272
- SGK1 ΔCT (B2M) (normalized to B2M): 9.245
- SLC10A6 ΔCT (B2M) (normalized to B2M): 17.859
- SLC19A2 ΔCT (B2M) (normalized to B2M): 6.283
- SLC22A5 ΔCT (B2M) (normalized to B2M): 9.416
- SNTA1 ΔCT (B2M) (normalized to B2M): 5.974
- SPHK1 ΔCT (B2M) (normalized to B2M): 10.287
- SPSB1 ΔCT (B2M) (normalized to B2M): 8.076
- STAT5A ΔCT (B2M) (normalized to B2M): 5.195
- STAT5B ΔCT (B2M) (normalized to B2M): 3.752
- TBL1XR1 ΔCT (B2M) (normalized to B2M): 2.415
- TNF ΔCT (B2M) (normalized to B2M): 13.273
- TNFAIP3 ΔCT (B2M) (normalized to B2M): 8.944
- TSC22D3 ΔCT (B2M) (normalized to B2M): 6.176
- USP2 ΔCT (B2M) (normalized to B2M): 5.108
- USPS4 ΔCT (B2M) (normalized to B2M): 7.316
- VDR ΔCT (B2M) (normalized to B2M): 7.850
- VLDLR ΔCT (B2M) (normalized to B2M): 8.656
- ZFP36 ΔCT (B2M) (normalized to B2M): 5.404
- ZHX3 ΔCT (B2M) (normalized to B2M): 6.035
- ZNF281 ΔCT (B2M) (normalized to B2M): 4.965
- RTC ΔCT (B2M) (normalized to B2M, array control, three lines): 2.769 and 2.834 and 2.808
- ADARB1 ΔΔCT (vs DMSO): 0.046
- AFF1 ΔΔCT (vs DMSO): −0.363
- AK2 ΔΔCT (vs DMSO): 0.272
- AMPD3 ΔΔCT (vs DMSO): 0.178
- ANGPTL4 ΔΔCT (vs DMSO): 0.119
- ANXA4 ΔΔCT (vs DMSO): −0.111
- ARID68 ΔΔCT (vs DMSO): 0.334
- ASPH ΔΔCT (vs DMSO): 0.286
- ATF4 ΔΔCT (vs DMSO): 0.467
- BCL6 ΔΔCT (vs DMSO): 0.227
- BMPER ΔΔCT (vs DMSO): 1.488
- CEBPA ΔΔCT (vs DMSO): −3.545
- CEBPB ΔΔCT (vs DMSO): 0.447
- COL4A2 ΔΔCT (vs DMSO): 2.238
- CREB1 ΔΔCT (vs DMSO): 0.249
- CREB3L4 ΔΔCT (vs DMSO): 0.138
- CREB3 ΔΔCT (vs DMSO): 0.344
- CTGF ΔΔCT (vs DMSO): −0.518
- CYB561 ΔΔCT (vs DMSO): −5.412
- DDIT4 ΔΔCT (vs DMSO): 0.007
- DUSP1 ΔΔCT (vs DMSO): −0.039
- EDN1 ΔΔCT (vs DMSO): 1.460
- EHD3 ΔΔCT (vs DMSO): −3.030
- ERRFI1 ΔΔCT (vs DMSO): −1.929
- FK8PS ΔΔCT (vs DMSO): −3.032
- FOSL2 ΔΔCT (vs DMSO): −1.462
- GDPD1 ΔΔCT (vs DMSO): 0.471
- GHRHR ΔΔCT (vs DMSO): 2.393
- GLUL ΔΔCT (vs DMSO): 0.971
- GOT1 ΔΔCT (vs DMSO): 0.132
- H6PD ΔΔCT (vs DMSO): 0.093
- HNRPLL ΔΔCT (vs DMSO): −0.740
- KLF9 ΔΔCT (vs DMSO): 0.181
- KLF13 ΔΔCT (vs DMSO): −0.098
- LOX ΔΔCT (vs DMSO): −0.132
- MERTK ΔΔCT (vs DMSO): −0.108
- NFKBIA ΔΔCT (vs DMSO): 0.167
- NR3C1 ΔΔCT (vs DMSO): 0.261
- PDCD7 ΔΔCT (vs DMSO): 0.194
- PDP1 ΔΔCT (vs DMSO): −0.255
- PER1 ΔΔCT (vs DMSO): 0.206
- PER2 ΔΔCT (vs DMSO): −0.374
- PIK3R1 ΔΔCT (vs DMSO): −0.032
- PLEKHF1 ΔΔCT (vs DMSO): −0.507
- POU2F1 ΔΔCT (vs DMSO): 0.058
- POU2F2 ΔΔCT (vs DMSO): 0.131
- RASA3 ΔΔCT (vs DMSO): 0.917
- RGS2 ΔΔCT (vs DMSO): 0.504
- RHOB ΔΔCT (vs DMSO): −1.483
- SESN1 ΔΔCT (vs DMSO): 0.055
- SGK1 ΔΔCT (vs DMSO): 0.621
- SLC19A2 ΔΔCT (vs DMSO): −0.308
- SLC22A5 ΔΔCT (vs DMSO): 0.033
- SNTA1 ΔΔCT (vs DMSO): 0.399
- SPHK1 ΔΔCT (vs DMSO): −1.381
- SPSB1 ΔΔCT (vs DMSO): 0.025
- STAT5A ΔΔCT (vs DMSO): −0.033
- STAT5B ΔΔCT (vs DMSO): 0.258
- TBL1XR1 ΔΔCT (vs DMSO): 0.030
- TNF ΔΔCT (vs DMSO): 0.954
- TNFAIP3 ΔΔCT (vs DMSO): −0.307
- TSC22D3 ΔΔCT (vs DMSO): 0.009
- USP2 ΔΔCT (vs DMSO): 0.013
- USPS4 ΔΔCT (vs DMSO): −0.274
- VDR ΔΔCT (vs DMSO): −0.547
- VLDLR ΔΔCT (vs DMSO): 0.499
- ZFP36 ΔΔCT (vs DMSO): 0.243
- ZHX3 ΔΔCT (vs DMSO): −0.156
- ZNF281 ΔΔCT (vs DMSO): −0.092
